Results published in US8207189B2, “Compound having affinity for amyloid” (Nihon Medi-Physics Co., Ltd., priority 2007, dated 2012).

Tests used:
[1] = partition coefficient based on the octanol extraction method; type: physicochemical; settings: octanol / 10 mmol/L phosphate buffer pH 7.4; Table 6 (Examples 20-21, Comparative Example 7)
Procedure: Partition coefficients based on the octanol extraction method (hereinafter referred to as log Poctanol) were measured, which are generally known as an indicator of permeability of compounds through the blood-brain barrier (hereinafter referred to as BBB).
A diethyl ether solution of Compound 1 prepared in Example 3 (Example 8), a diethyl ether solution of Compound 2 prepared in Example 6 (Example 9), and a diethyl ether solution of [^123I]-IMPY prepared in Reference Example 1 (Comparative Example 4) were each diluted with 10 mg/mL ascorbic acid-containing physiological saline solution, and adjusted to a radioactive concentration of 20-30 MBq/mL. To 2 mL of octanol, 10 μL each of the prepared sample solutions was added, 2 mL of 10 mmol/L phosphate buffer (pH 7.4) was added, followed by stirring for 30 seconds. After the mixture was centrifuged with a low-speed centrifuge (2000 rpm×60 min.), the octanol layer and the water layer were sampled each in an amount of 1 mL, and subjected to measurement of radioactivity count with an autowell gamma system (Type: ARC-301B, manufactured by Aloka). Using the obtained radioactivity count, log Poctanol was calculated in accordance with the equation (2).
A diethyl ether solution (Example 20) of Compound 4 prepared in Example 16, a diethyl ether solution (Example 21) of Compound 6 prepared in Example 19, and a diethyl ether solution (Comparative Example 7) of [^123I]-IMPY were each diluted with a 10 mg/mL ascorbic acid-containing physiological saline solution to adjust to a radioactive concentration of 20-30 MBq/mL. To 2 mL of octanol, 10 μL each of the prepared sample solution was added, and 2 mL of 10 mmol/L phosphate buffer (pH 7.4) was further added, followed by stirring for 30 seconds. After the mixture was centrifuged with a low-speed centrifuge (2000 rpm×60 min.), the octanol layer and the water layer were sampled each in an amount of 1 mL, and subjected to measurement of radioactivity count with an autowell gamma system (Type: ARC-301B, manufactured by Aloka). Using the obtained radioactivity count, log Poctanol was calculated in accordance with the equation (4).

[2] = transferability into brain and clearance after intravenous injection; type: in vivo, rat
Procedure: Using Compound 1 (Example 10) and Compound 2 (Example 11), a time course change of radioactive accumulation in brain of male Wistar rats (7-week old) was measured.
A diethyl ether solution of Compound 1 (Example 10) prepared in Example 3, a diethyl ether solution of Compound 2 (Example 11) prepared in Example 6 and a diethyl ether solution of [^123I]-IMPY (Comparative Example 5) prepared in Reference Example 1 were each diluted with 10 mg/mL ascorbic acid-containing physiological saline solution to adjust to a radioactive concentration of 8-12 MBq/mL. 0.05 mL each of the prepared sample solutions was injected under thiopental anesthesia into the tail vein of the rats. The rats were sacrificed by bleeding from abdominal artery, and brains were removed and subjected to measurement of mass of brains and further subjected to measurement of radioactivity (hereinafter referred to as A in this Example) with a single channel analyzer (detector type: SP-20 manufactured by OHYO KOKEN KOGYO Co., Ltd.) 2, 5, 30 and 60 minutes after the injection. Further, the radioactivity level of the rest of the whole body was measured in the same manner as above (hereinafter referred to as B in this Example). Using these measurement results, radioactive distribution per unit weight of brain (% ID/g) at the respective time points were calculated in accordance with the following formula (3).
Three animals were used for the experiment at the respective time points.
Using Compound 4 and Compound 6, a time course change of radioactive accumulation in brain of male Wistar rats (7-week old) was measured.
Compound 4 (Example 22), Compound 6 (Example 23) and a solution of [^123I]-IMPY (Comparative Example 8) prepared above in Reference Example 1 were each diluted with a 10 mg/mL ascorbic acid-containing physiological saline solution to prepare solutions (20-31 MBq/mL in radioactive concentration). 0.05 mL each of the prepared sample solutions was injected under thiopental anesthesia into the tail vein of the respective Wistar rat (7-week old). The rats were sacrificed by bleeding from abdominal artery, and brains were removed and subjected to measurement of mass of brains and further subjected to measurement of radioactivity (hereinafter referred to as A in this Example) with a single channel analyzer (detector type: SP-20 manufactured by OHYO KOKEN KOGYO Co., Ltd.) 2, 5, 30 and 60 minutes after the injection. Further, the radioactivity level of the rest of the whole body was measured in the same manner as above (hereinafter referred to as B in this Example). Using these measurement results, radioactive distribution per unit weight of brain (% ID/g) at the respective time points were calculated in accordance with the following formula (5).

[3] = system: amyloid (aggregated Aβ1-42) injected into amygdaloid nucleus; assay: confirmation of imaging of amyloid in brain (autoradiogram, Aβ1-42 injected rats); type: in vivo, rat; settings: brain slice 60 minutes after intravenous injection
Procedure: (§1) (1) Aβ1-42 (manufactured by Wako) was dissolved in phosphate buffer (pH 7.4) and shaken at 37° C. for 72 hours, to obtain a 1 mg/mL suspension of aggregated Aβ (hereinafter referred to as amyloid suspension in the Examples).
(§2) (2) 2.5 μL (corresponding to […]) of the amyloid suspension was injected into an amygdaloid nucleus on one side of a male Wistar rat (7-week old). As a control, 2.5 μL of a phosphate buffered physiological saline solution (pH 7.4) was injected into an amygdaloid nucleus on the other side of the rat. The rats were examined 1 day after the injection of the amyloid suspension and the phosphate buffered physiological saline solution (pH 7.4).
(§3) (3) Compound 1 was dissolved in a 10 mg/mL ascorbic acid-containing physiological saline solution to obtain a sample solution (22 MBq/mL in radioactivity concentration in the sample solution). This solution was injected under thiopental anesthesia into the rat through the tail vein (dosage: 0.5 mL, dosed radioactivity: 11-13 MBq equivalent).
(§4) (4) Brain was removed 60 minutes after the injection to prepare a brain slice of 10 μm in thickness with a microtome (type: CM3050S, manufactured by LEICA). The brain slice was exposed to an imaging plate for 20 hours, and then image analysis was carried out by use of a Bio-imaging Analyzer (type: BAS-2500; manufactured by FUJIFILM Corporation).
(§5) Thus, it was confirmed that amyloid was deposited on the slice (FIG. 6b).
(§6) The same procedures as in Example 12 were performed except using a solution of Compound 2 in a 10 mg/mL ascorbic acid as a sample solution (the radioactive concentration of the sample solution was 25 MBq/mL).
(§7) (1) Aβ1-42 (manufactured by Wako) was dissolved in phosphate buffer (pH 7.4) and shaken at 37° C. for 72 hours, to obtain 1 mg/mL of a suspension of aggregated Aβ (hereinafter referred to as amyloid suspension in the Examples).
(§8) (3) A sample solution (30 MBq/mL in radioactivity concentration, Example 24) in which Compound 4 was dissolved in a 10 mg/mL ascorbic acid-containing physiological saline solution and a sample solution (30 MBq/mL in radioactivity concentration, Example 25) in which Compound 6 was dissolved in a 10 mg/mL ascorbic acid-containing physiological saline solution were prepared. This solution was injected under thiopental anesthesia into the rat through the tail vein (dosage: 0.5 mL, dosed radioactivity: 11-15 MBq equivalent).
(§9) Thus, it was confirmed that amyloid was deposited on the slice (FIG. 12 and FIG. 13).

[4] = target: T1, amyloid (aggregated Aβ1-42) injected into amygdaloid nucleus (Homo sapiens, UniProt P05067); assay: as above; type: in vivo, rat; settings: brain slice 60 minutes after intravenous injection, Aβ1-42
T1 construct: Aβ1-42 (manufactured by Wako) was dissolved in phosphate buffer (pH 7.4); purchased Wako
Procedure: as §1, §2, §3, §4, §5, §6, §7, §8, §9

[5] = system: Salmonella typhimurium TA100; assay: reverse mutation test (Ames test), TA100; type: cell-based
Procedure: (§10) In order to examine gene mutagenicity of Compound 3, 5 and 8, reverse mutation test using Salmonella typhimurium TA98 and TA100 (hereinafter referred to as Ames test) was conducted.
(§11) The test was conducted without addition of S9mix and with addition of S9mix. Dimethylsulfoxide (DMSO) was used as a negative control. A positive control was 2-(2-furyl)-3-(5-nitro-2-furyl)acrylamide (hereinafter referred to as AF-2) in case S9mix was not added, and 2-aminoanthracene (hereinafter referred to as 2-AA) in case S9mix was added.
(§12) As a sample solution to be added to a test plate, each compound was dissolved in DMSO to prepare a solution at a concentration of 50 mg/mL, and further, each solution was diluted with DMSO to prepare a solution with 7 dosage (geometric ratio 3). As a sample solution for preparing a sample of positive control, when TA98 was used as a test strain without addition of S9mix, a solution of AF-2 (compound concentration: 1 μg/mL) in DMSO was prepared; when TA100 was used as a test strain without addition of S9mix, a solution of AF-2 (compound concentration: 0.1 μg/mL) in DMSO was prepared; when TA98 was used as a test strain with addition of S9mix, a solution of 2-AA (compound concentration: 5 μg/mL) in DMSO was prepared; and when TA100 was used as a test strain with addition of S9mix, a solution of 2-AA (compound concentration: 10 μg/mL) in DMSO was prepared.
(§13) After each sample solution to be examined and a test strain (TA98 or TA100) were mixed together so as to make the addition amount of each sample to be 0.1 mL/plate, the mixture was multilayered using soft agar on a medium of a test plate, and then incubated at 37° C. for 48 hours. Separately, after each sample solution to be examined, S9mix and a test strain were mixed together so as to make the addition amount of each sample to be 0.1 mL/plate, the mixture was multilayered using soft agar on a medium of a test plate, and then incubated at 37° C. for 48 hours. On the other hand, only DMSO was used as a sample solution to perform the same procedure as above for the negative control.

[6] = system: Salmonella typhimurium TA98; assay: reverse mutation test (Ames test), TA98; type: cell-based
Procedure: as §10, §11, §12, §13

[7] = normal mice, [125I]-labeled, cited from earlier work; for transfer into brain: 2 minutes after administration

T1 sequence (P05067 672-713): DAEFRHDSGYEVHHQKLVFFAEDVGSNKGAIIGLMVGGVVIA

2-[4′-(3″-hydroxypropoxy)phenyl]-6-[^123I]iodoimidazo[1,2-a]pyridine [Compound 6]
logPoctanol value [1]: 2.1 | Radioactive distribution per unit weight in brain, After 2 min. ([2]; male Wistar rats, intravenous injection, 2 min, Table 7): 0.81 % ID/g | Radioactive distribution per unit weight in brain, After 5 min. ([2]; male Wistar rats, intravenous injection, 5 min, Table 7): 0.56 % ID/g | Radioactive distribution per unit weight in brain, After 30 min. ([2]; male Wistar rats, intravenous injection, 30 min, Table 7): 0.07 % ID/g | Radioactive distribution per unit weight in brain, After 60 min. ([2]; male Wistar rats, intravenous injection, 60 min, Table 7): 0.02 % ID/g | radioactive accumulation in brain two minutes after the injection (in words) ([2]; rats, intravenous, 2 min): significant accumulation | clearance from brain in 60 minutes (in words) ([2]; rats, intravenous, 60 min): rapidly clear away | accumulation of radioactivity at sites other than the amyloid injected sites [3]: little accumulation of radioactivity | accumulation of radioactivity in amygdaloid nucleus on the physiological saline-injected side [3]: no significant accumulation of radioactivity | accumulation of radioactivity in amygdaloid nucleus on the amyloid-injected side [4]: marked accumulation of radioactivity

OCCOc1cccc(-c2cn3cc(I)ccc3n2)c1 [Compound 5, 2-[3′-(2″-hydroxyethoxy)phenyl]-6-iodoimidazo[1,2-a]pyridine]
Mutagenicity, TA100, With addition of S9mix [5]: Negative | Mutagenicity, TA100, Without addition of S9mix [5]: Negative | Mutagenicity, TA98, With addition of S9mix [6]: Negative | Mutagenicity, TA98, Without addition of S9mix [6]: Negative

OCCOc1ccc(-c2cn3cc(I)ccc3n2)cc1 [Compound 3, 2-[4′-(2″-hydroxyethoxy)phenyl]-6-iodoimidazo[1,2-a]pyridine]
Mutagenicity, TA100, With addition of S9mix [5]: Negative | Mutagenicity, TA100, Without addition of S9mix [5]: Negative | Mutagenicity, TA98, With addition of S9mix [6]: Negative | Mutagenicity, TA98, Without addition of S9mix [6]: Negative

CN(C)c1ccc(-c2nc3ccc(I)cc3s2)cc1 [TZDM, 6-iodo-2-[4′-(N,N-dimethylamino)phenyl]benzothiazole]
transfer into brain [7]: transferred into brain | clearance from normal tissues [7]: insufficient in clearance from normal tissues

CN(C)c1ccc(/C=C/c2ccc(I)cc2)cc1 [m-I-SB, (E)-4-dimethylamino-4′-iodostilbene]
transfer into brain [7]: transferred into brain | clearance from normal tissues [7]: insufficient in clearance from normal tissues

CCOc1ccc(-c2cn3cc(I)ccc3n2)cc1 [Compound 8, 2-(4′-ethoxyphenyl)-6-iodoimidazo[1,2-a]pyridine]
Mutagenicity, TA100, With addition of S9mix [5]: Negative | Mutagenicity, TA100, Without addition of S9mix [5]: Negative | Mutagenicity, TA98, With addition of S9mix [6]: Negative | Mutagenicity, TA98, Without addition of S9mix [6]: Negative

CN(C)c1ccc(-c2nc3ccc(I)cc3o2)cc1 [IBOX, 6-iodo-2-[4′-(N,N-dimethylamino)phenyl]benzoxazole]
transfer into brain [7]: transferred into brain | clearance from normal tissues [7]: insufficient in clearance from normal tissues
